Source: patent US20130047297A1, “POLYNUCLEOTIDE MOLECULES FOR GENE REGULATION IN PLANTS” (priority 2010, published 2013)
d = 2'-deoxy (DNA); r = 2'-OH (RNA)

Assays:
Assay type in all cases: in vivo
[1] = tested on: glyphosate-resistant Palmer amaranth plants; test: Salts, EDTA, glycerin as additives to polynucleotide spray solutions (Example 35, Tables 26-28); conditions: for enhancing the efficacy of the polynucleotides and potentiating the herbicidal activity of glyphosate: additive in the spray solution
Palmer amaranth = test: Combinations of EPSPS, TIF and ddATPase polynucleotides then glyphosate (Example 26, Tables 12 and 13); conditions: protocol 3; 29 g/acre; copy number 16; 13 DAT
Protocol: Solutions of the polynucleotides were prepared and applied to the leaves of Palmer amaranth using the protocols described in Table 12.

[2] = tested on: Nicotiana benthamiana phytoene desaturase; test: Topical oligonucleotides/polynucleotides on tobacco, PDS bleaching and chlorophyll (Example 10); conditions: for bleaching of apical leaves (FIG. 15): another assay; for bleaching of apical leaves (FIG. 14): topical treatment; for Chlorophyll (day 12) / Chlorophyll (day 7): 6 spots on the apical area; for Chlorophyll (day 12): buffer control 38.4; for Chlorophyll (day 7): lower values indicate suppression of phytoene desaturase, buffer control 31.2; for Bleaching (day 5): 25 microM each; for systematically regulating (suppressing) the target gene phytoene desaturase: Table 4 treatments
Protocol: The following procedure was used for all assays described in this example. Four-week old Nicotiana benthamiana plants were used in all assays. Plants were treated with 0.1% Silwet L-77 solution freshly made with ddH2O. Two fully expanded leaves per plant (one cotyledon, one true leaf) were dipped into the Silwet L-77 solution for a few seconds, and allowed to dry for 15-30 minutes before application of the polynucleotide composition. Final concentration for each oligonucleotide or polynucleotide was 25 microM (in 0.01% Silwet L-77, 5 mM sodium phosphate buffer, pH 6.8) unless otherwise stated. 20 microliters of the solution was applied to the top surface of each of the two pre-treated leaves to provide a total of 40 microliters (1 nmol oligonucleotide or polynucleotide) for each plant. Leaf bleaching was observed 3 days post treatment.
FIG. 13 illustrates phenotypes observed at day 12 after treatment in another assay of the effect from twelve combinations of polynucleotides or oligonucleotides (see Table 4). Table 4 also lists observations of visible bleaching of the plants at day 5 after treatment and the results of chlorophyll measurements taken at days 7 and 12 after treatment. Chlorophyll measurements are an indication of suppression of the target gene phytoene desaturase, and measurements were taken at 6 spots on the apical area, focussing on visibly bleached leaves or (in plants without visible bleaching) on leaves in equivalent locations on the plants; lower chlorophyll measurement values indicate suppression of phytoene desaturase.

[3] = tested on: glyphosate-resistant Palmer amaranth containing 16 copies of EPSPS; test: Glyphosate counter-ions with EPSPS polynucleotides (Example 35, Table 29); conditions: for Palmer control (%) / Palmer height (cm): 1682 g acid equivalent per hectare of the glyphosate salt, with or without EPSPS polynucleotides (IDT [1]-[4]) in 0.5% Silwet L-77, 2% ammonium sulfate, 16 copies of EPSPS, 21 days after treatment; for herbicidal activity compared to the potassium salt: 1682 g acid equivalent per hectare of glyphosate salt with IDT [1]-[4], 21 days after glyphosate treatment
Source text: FIG. 38 depicts the effect of varying glyphosate counter-ions on herbicidal activity (presented as percent of weed control/kill, and as plant height) of topically applied polynucleotides (RNA) on glyphosate-resistant Palmer amaranth plants. A mixture of EPSPS polynucleotides (IDT [1] (SEQ ID NO:83-84), IDT [2] (SEQ ID NO:85-86), IDT [3] (SEQ ID NO:87-88), and IDT [4] (SEQ ID NO:89-90)) in 0.5% Silwet L-77, 2% ammonium sulfate in 10 millimolar sodium phosphate buffer, pH 6.8 with 0.2% Roundup® WeatherMax® carrier (MON56151 tallowamine surfactant blend of tallowamine (16-18C) and cocoamine (12-14C) in the ratio of 55:45) and 1682 g acid equivalent per hectare of one of the glyphosate salts; K+ glyphosate, isopropylammonium+ glyphosate or monoethanolammonium+ glyphosate at 215 liters/acre by Milli spray on 3 replicates of 4-6 inch glyphosate-resistant Palmer amaranth containing 16 copies of EPSPS. Plant height was scored at 21 days after glyphos ate treatment.

[4] = 2% salt as additive to 1% Silwet L-77 spray solution of topically applied polynucleotides (RNA), glyphosate
[5] = Table 26: additive to 1% Silwet L-77 spray solution of polynucleotides (RNA), glyphosate

Molecule: CC[N+](CC)(CC)CC.[Cl-] [tetraethylammonium chloride]
- Palmer control (%) [1, 4]: 27%
- Palmer height (cm) [1, 4]: 12.0 cm

Molecule: IDT [4]: Palmer/EPSPS dsRNA, SEQ ID NO. 89, 90 (chain 1 UGCAAGGUCACCUGGACAGAGAAA; chain 2 UAUUCUCUGUCCAGGUGACCUUGCAAC; listed as RNA, chemistry not fully specified)
- Results: % stunted (Palmer amaranth): 51% stunted

Molecule: PDS 21-mer sense ssDNA: SEQ ID NO:36 (sense GCAGTACAATTAAAGGAGATG; DNA, backbone not given here)
- bleaching of apical leaves (FIG. 15) [2]: Little or no visible bleaching

Molecule: O=C(O)CN(CCN(CC(=O)O)CC(=O)O)CC(=O)O [EDTA, ethylenediaminetetraacetic acid]
- Palmer control (%) ([1]; Table 26: additive (2% ammonium sulfate; 0.004% EDTA) to 1% Silwet L-77 spray solution of polynucleotides (RNA), glyphosate): 45%
- Palmer height (cm) [1, 5]: 1.0 cm
- enhancing the efficacy of the polynucleotides and potentiating the herbicidal activity of glyphosate [1]: act similarly to 2% ammonium sulfate

Molecule: IDT [1]: Palmer/EPSPS dsRNA, SEQ ID NO. 83, 84 (chain 1 CUACCAUCAACAAUGGUGUCCAUAC; chain 2 GUAUGGACACCAUUGUUGAUGGUAGUA; chain 1: sugars from the 5' end r23 d2, backbone not given here; chain 2: RNA, backbone not given here)
- Results: % stunted (Palmer amaranth): 51% stunted

Molecule: O=C(O)CNCP(=O)([O-])O.[K+] [K + glyphosate]
- Palmer control (%) [3]: 23%
- Palmer height (cm) [3]: 12.3 cm

Molecule: CC(C)N.O=C(O)CNCP(=O)(O)O [IPA + glyphosate]
- Palmer control (%) [3]: 9%
- Palmer height (cm) [3]: 14.5 cm

Molecule: PDS 33-mer anti-sense ssDNA: SEQ ID NO:35 (antisense CATCTCCTTTAATTGTACTGCCATTATTCAGTA; DNA, backbone not given here)
- bleaching of apical leaves (FIG. 14) [2]: Strong bleaching

Molecule: NCCO.O=C(O)CNCP(=O)(O)O [monoethanolammonium+ glyphosate, reference compound]
- herbicidal activity compared to the potassium salt [3]: better herbicidal activity

Molecule: Oligo 3 without T7 promoter: SEQ ID NOs 22, 23; PDS anti-sense 22-mer oligonucleotides without a T7 promoter (antisense 1 CATCTCCTTTAATTGTACTGCC; antisense 2 TTTAATTGTACTGCCATTATTC; listed as DNA, chemistry not given here)
- Chlorophyll (day 12) [2]: 3.2
- Chlorophyll (day 7) [2]: 11.3
- Bleaching (day 5) ([2]; 40 microliters per plant): strong
- systematically regulating (suppressing) the target gene phytoene desaturase [2]: effective
- bleaching of apical leaves (FIG. 15) [2]: strong bleaching
- bleaching of apical leaves (FIG. 14) [2]: Strong bleaching

Molecule: C[N+](C)(C)C.[Cl-] [tetramethylammonium chloride]
- Palmer control (%) ([1]; in vivo): 19%
- Palmer height (cm) ([1]; in vivo): 15.0 cm

Molecule: Cl.N [ammonium chloride]
- Palmer control (%) [1, 4]: 52%
- Palmer height (cm) [1, 4]: 10.3 cm
- enhancing the efficacy of the polynucleotides and potentiating the herbicidal activity of glyphosate [1]: act similarly to ammonium sulfate

Molecule: N.N.O=S(=O)(O)O [ammonium sulfate]
- Palmer control (%) [1, 4]: 54%
- Palmer height (cm) [1, 4]: 9.3 cm
- Palmer height (cm) [1, 5]: 1.8 cm
- Palmer control (%) ([1]; in vivo): 43%

Molecule: OCC(O)CO [Glycerin, glycerin]
- enhancing the efficacy of the polynucleotides and potentiating the herbicidal activity of glyphosate [1]: enhance the efficacy of the polynucleotides

Molecule: O=S(=O)([O-])[O-].[Na+].[Na+] [sodium sulfate]
- Palmer control (%) ([1]; in vivo): 7%
- Palmer height (cm) ([1]; in vivo): 17.0 cm

Molecule: [Cl-].[Na+] [sodium chloride]
- Palmer control (%) [1, 4]: 15%
- Palmer height (cm) [1, 4]: 15.0 cm

Molecule: NCCO.O=C(O)CNCP(=O)(O)O [MEA + glyphosate]
- Palmer control (%) [3]: 9%
- Palmer height (cm) [3]: 14.5 cm

Molecule: PDS 15-mer anti-sense ssDNA: SEQ ID NO:32 (antisense CATCTCCTTTAATTG; DNA, backbone not given here)
- bleaching of apical leaves (FIG. 14) [2]: Little or no visible bleaching

Molecule: Oligos 1 and 2 without T7 promoter: SEQ ID NOs 18, 19 (chain 1 GCAAGAGATGTCCTAGGTGGG; chain 2 ACAGATTTCTTCAGGAGAAACATGG; DNA, backbone not given here)
- Chlorophyll (day 12) [2]: 41.1
- Chlorophyll (day 7) [2]: 32.0
- Bleaching (day 5) ([2]; 40 microliters per plant): not yet
- systematically regulating (suppressing) the target gene phytoene desaturase [2]: did not suppress

Molecule: CCCC[P+](CCCC)(CCCC)CCCC.[Br-] [tetrabutylphosphonium bromide]
- enhancing the efficacy of the polynucleotides and potentiating the herbicidal activity of glyphosate [1]: act similarly to ammonium sulfate

Molecule: CC(C)N.O=C(O)CNCP(=O)(O)O [isopropylammonium+ glyphosate, reference compound]
- herbicidal activity compared to the potassium salt [3]: better herbicidal activity

Molecule: PDS 18-mer anti-sense ssDNA: SEQ ID NO:33 (antisense CATCTCCTTTAATTGTAC; DNA, backbone not given here)
- bleaching of apical leaves (FIG. 14) [2]: Little or no visible bleaching

B1: Oligos 1, 2, and 3 w/o T7 promoter and oligos 4, 5, & 6: SEQ ID NOs 18, 19, 22, 23, 24, 25, 26 (nucleic acid)
chain 1: GCAAGAGATGTCCTAGGTGGG
chain 2: ACAGATTTCTTCAGGAGAAACATGG
chain 3: CATCTCCTTTAATTGTACTGCC
chain 4: TTTAATTGTACTGCCATTATTC
chain 5: CACTTCCATCCTCATTCAGCTCGAT
chain 6: ACACCTCATCTGTCACCCTATCAG
chain 7: CAGTCTCGTACCAATCTCCATCAT
modifications: DNA, backbone not given here
- Chlorophyll (day 12) [2]: 34.4
- Chlorophyll (day 7) [2]: 30.2
- Bleaching (day 5) ([2]; 40 microliters per plant): not yet

B2: 200-mer dsRNA polynucleotide: dsRNA corresponding to nucleotides 914-1113 of SEQ ID NO:2 (nucleic acid, listed as Nicotiana benthamiana)
sense: ACAGATTTCTTCAGGAGAAACATGGTTCAAAAATGGCCTTTTTAGATGGTAACCCTCCTGAGAGACTTTGCATGCCGATTGTGGAACATATTGAGTCAAAAGGTGGCCAAGTCAGACTAAACTCACGAATAAAAAAGATCGAGCTGAATGAGGATGGAAGTGTCAAATGTTTTATACTGAATAATGGCAGTACAATTAAA
modifications: complementary strand
- Chlorophyll (day 12) [2]: 4.0
- Chlorophyll (day 7) [2]: 11.3
- Bleaching (day 5) ([2]; 40 microliters per plant): strong
- bleaching of apical leaves (FIG. 12A) ([2]; 200-mer dsRNA at 0.6 microM, oligonucleotides 25 microM each, 40 microliters per plant): Bleaching of apical leaves was observed
- systematically regulating (suppressing) the target gene phytoene desaturase [2]: effective

B3: PDS 700-mer dsRNA: dsRNA designed from nucleotides 421-1120 of SEQ ID NO:2 (nucleic acid, listed as Nicotiana benthamiana)
DNA: GCAAGAGATGTCCTAGGTGGGAAGGTAGCTGCATGGAAAGATGATGATGGAGATTGGTACGAGACTGGGTTGCACATATTCTTTGGGGCTTACCCAAATATGCAGAACCTGTTTGGAGAACTAGGGATTGATGATCGGTTGCAGTGGAAGGAACATTCAATGATATTTGCGATGCCTAACAAGCCAGGGGAGTTCAGCCGCTTTGATTTTCCTGAAGCTCTTCCTGCGCCATTAAATGGAATTTTGGCCATACTAAAGAACAACGAAATGCTTACGTGGCCCGAGAAAGTCAAATTTGCTATTGGACTCTTGCCAGCAATGCTTGGAGGGCAATCTTATGTTGAAGCTCAAGACGGTTTAAGTGTTAAGGACTGGATGAGAAAGCAAGGTGTGCCTGATAGGGTGACAGATGAGGTGTTCATTGCCATGTCAAAGGCACTTAACTTCATAAACCCTGACGAGCTTTCGATGCAGTGCATTTTGATTGCTTTGAACAGATTTCTTCAGGAGAAACATGGTTCAAAAATGGCCTTTTTAGATGGTAACCCTCCTGAGAGACTTTGCATGCCGATTGTGGAACATATTGAGTCAAAAGGTGGCCAAGTCAGACTAAACTCACGAATAAAAAAGATCGAGCTGAATGAGGATGGAAGTGTCAAATGTTTTATACTGAATAATGGCAGTACAATTAAAGGAGATG
modifications: dsRNA of this region
- bleaching of apical leaves (FIG. 14) [2]: Strong bleaching
